These results are taken from publication PMC6154661, “In Vitro Glucuronidation and Sulfation of ε-Viniferin, a Resveratrol Dimer, in Humans and Rats” (Molecules : A Journal of Synthetic Chemistry and Natural …, 2017).

SMILES strings stand for the structures. “And” between values parts separate entries of the source, which are not always exact repeats. Equal entries are not always repeated. Where two headings read alike, the source gives them in different places.

Data set [1] can be described thus: Formation of glucurono- and sulfoconjugates of ε-viniferin (50 µM, 40 min) with human liver S9 fractions. The class given is in vitro ADME. The note with it: human liver S9, ε-viniferin 50 µM. The procedure: (§1) After incubation of ε-viniferin (50 µM) for 40 min at 37 °C with either human (Figure 2a, lower panel) or rat (Figure 2b, lower panel) liver S9 fractions (2 mg/mL) in the presence of different phase II cofactor(s), i.e., 3′-phosphoadenosine-5′-phosphosulfate (PAPS) and UDPGA, eight metabolites were found using UPLC-DAD-MS. These metabolites were further identified by comparison with the UPLC retention times and mass spectra of the authentic chemical standards that were obtained by chemical hemi-synthesis (Figure 1a). These eight compounds were the four glucuronoconjugates (MG1, MG2, MG3, and MG4) and the four sulfoconjugates (MS1, MS2, MS3, and MS4). These metabolites were absent in the control condition, i.e., in the presence of liver S9 fractions and in the absence of phase II cofactors (data not shown).
(§2) Samples from either chemical hemi-synthesis or metabolic reactions were carried using a 1290 Infinity UPLC (Agilent Technologies, Courtaboeuf, France). The UPLC was coupled to an Esquire 3000 Plus ion trap mass spectrometer using an ESI source (Bruker-Daltonics, Billerica, MA, USA). 2 µL were injected into an Agilent SB-C18 column (1.8 µm, 2.1 × 100 mm). Samples were eluted with solvent A (H2O 0.1% FA) and solvent B (acetonitrile 0.1% FA) by the following gradient program: 0–1.7 min, 10% B; 1.7–3.4 min, 10–20% B; 3.4–5.1 min, 20–30% B; 5.1–7.8 min, 30% B; 7.8–8.5 min, 30–35% B; 8.5–11.9 min, 35–60% B; 11.9–15.3 min, 60–100% B; 15.3–17 min, 100% B; 17–17.3 min, 100–10% B. The flow rate was set to 0.4 mL/min and the UV detector was set at the wavelength 320 nm. Total ion chromatograms were obtained using negative mode with a range of m/z 130–1400. The parameters were: capillary voltage, +4 kV; nebulizer pressure, 40 psi; dry gas, 10 L/min; dry temperature, 365 °C. Data analysis was performed with Bruker Data Analysis 3.2 (Bruker-Daltonics, Billerica, MA, USA). Metabolite concentrations were expressed as an equivalent of the ε-viniferin standard curve.
(§3) The incubation conditions were optimized by preliminary experiments to ensure the formation rates of metabolites were linear over the incubation time and at the concentration of protein added. Sulfation was investigated by incubating human or rat liver S9 fractions (2 mg/mL) with ε-viniferin at different concentrations (5 to 300 µM) in Tris-HCl buffer (50 mM, pH 7.4), in the presence of PAPS (1 mM), DTT (10 mM), MgCl2 (5 mM) in a final volume of 100 µL. After 40 min at 37 °C, the reaction was stopped with 100 µL of methanol to precipitate the protein. Glucuronidation was investigated by incubating human or rat liver S9 fractions (2 mg/mL) with ε-viniferin at different concentrations (5 to 300 µM) in Tris-HCl buffer (50 mM, pH 7.4), in the presence of UDPGA (1 mM), alamethicin (25 µg/mL), and MgCl2 (5 mM) in a final volume of 100 µL. After 40 min at 37 °C, the reaction was stopped with 100 µL of methanol to precipitate the protein. Samples from sulfation and glucuronidation were then centrifuged for 30 min (14,000× g, 4 °C), and the resultant supernatants were analyzed using UPLC-DAD-MS as described above. The kinetic model that was used to analyze the results was substrate inhibition. Kinetic parameters, i.e., Vmax and Km were obtained using GraphPad Prism software (La Jolla, CA, USA). Results are expressed as mean ± sem of three independent experiments.

A short description of data set [2]: Sulfation of ε-viniferin by rat liver S9 fractions (PAPS). The data set is classed as in vitro ADME. The note with it: for Vmax: formation of the sulfate from ε-viniferin, rat liver S9, mean ± SEM, n=3; for relative abundance among the sulfoconjugates (UPLC-DAD profile): rat liver S9 2 mg/mL, ε-viniferin 50 µM, PAPS, 40 min, 37 °C. The procedure: as §1, §2, §3
(§4) V = (Vmax × [S])/(Km + [S] + [S]^2/Ki),
(§5) Vmax: maximal velocity; Km: substrate affinity constant; [S]: substrate concentration; Ki: substrate inhibition constant.

Data set [3] is described as follows: Sulfation of ε-viniferin by human liver S9 fractions (PAPS). Particulars: for Vmax: formation of the sulfate from ε-viniferin, human liver S9, mean ± SEM, n=3; for relative abundance among the sulfoconjugates (UPLC-DAD profile): human liver S9 2 mg/mL, ε-viniferin 50 µM, PAPS, 40 min, 37 °C. The class given is in vitro ADME. The procedure:
as §1, §2, §3
(§6) V = (Vmax × [S])/(Km + [S] + [S]^2/Ki), […]

Data set [4] in a line: Formation of glucurono- and sulfoconjugates of ε-viniferin (50 µM, 40 min) with rat liver S9 fractions. The class given is in vitro ADME. The note with it: rat liver S9, ε-viniferin 50 µM. The procedure:
as §1, §2, §3

A short description of data set [5]: Glucuronidation of ε-viniferin by rat liver S9 fractions (UDPGA). The data set is classed as in vitro ADME. The note with it: for Vmax: formation of the glucuronide from ε-viniferin, rat liver S9, mean ± SEM, n=3. The procedure:
as §1, §2, §3, §6

Data set [6] in a line: Glucuronidation of ε-viniferin by human liver S9 fractions (UDPGA). The data set is classed as in vitro ADME. The note with it: for Vmax: formation of the glucuronide from ε-viniferin, human liver S9, mean ± SEM, n=3; for relative abundance among the glucuronides (UPLC-DAD profile): human liver S9 2 mg/mL, ε-viniferin 50 µM, UDPGA, 40 min, 37 °C. As for the experimental part: as §1, §2, §3, §4, §5

On the set-up of data set [7]: method as in PMID 27902942. Particulars: mice, oral administration; cited from earlier work.
For data set [8] the following is noted: rat, in vivo; cited from earlier work.

For the compound `O=S(=O)(O)Oc1cc(/C=C/c2ccc(O)cc2)c2c(c1)OC(c1ccc(O)cc1)C2c1cc(O)cc(O)c1` (stereo not shown) [MS1], the “percentage of each metabolite relative to the total amount of ε-viniferin metabolites formed by sulfation” value in data set [1] is “MS1: 75.2 ± 3.8%”; in data set [4], “MS1: 38.0 ± 1.4%”. For the same compound, the Vmax in data set [2] was determined as 25.16 ± 2.29 pmol/min/mg protein; in data set [3], 361.60 ± 13.09 pmol/min/mg protein. For the same compound, the “relative abundance among the sulfoconjugates (UPLC-DAD profile)” value in data set [2] is listed as “almost equal amounts”; in data set [3], “major metabolite”.
As to `O=C(O)C1OC(Oc2cc(O)cc(C3c4c(/C=C/c5ccc(O)cc5)cc(O)cc4OC3c3ccc(O)cc3)c2)C(O)C(O)C1O` (stereo not shown) [MG4], the “percentage of each metabolite relative to the total amount of ε-viniferin metabolites formed by glucuronidation” value in data set [1] is on record as “MG4: 31.5 ± 0.9%”; in data set [4], “MG4: 7.1 ± 0.1%”. The Vmax amounted to 43.99 ± 5.49 pmol/min/mg protein in data set [5] and 4.91 ± 0.78 pmol/min/mg protein in data set [6]. Also, the “relative abundance among the glucuronides (UPLC-DAD profile)” value in data set [6] is “major metabolites”.
Take `O=S(=O)(O)Oc1ccc(C2Oc3cc(O)cc(/C=C/c4ccc(O)cc4)c3C2c2cc(O)cc(O)c2)cc1` (stereo not shown) [MS3]: the “percentage of each metabolite relative to the total amount of ε-viniferin metabolites formed by sulfation” value is listed as “MS3: 0%” in data set [1] and “MS3: 22.0 ± 1.9%” in data set [4]. The Vmax in data set [2] is 13.47 ± 1.10 pmol/min/mg protein. Further, the “relative abundance among the sulfoconjugates (UPLC-DAD profile)” value is “almost equal amounts” in data set [2] and “trace amount” in data set [3].
The corresponding values for `O=S(=O)(O)Oc1cc(O)cc(C2c3c(/C=C/c4ccc(O)cc4)cc(O)cc3OC2c2ccc(O)cc2)c1` (stereo not shown) [MS4] are “MS4: 0%”, “MS4: 16.4 ± 1.3%”, 36.79 ± 3.94 pmol/min/mg protein, “almost equal amounts” and “trace amount”.
In the case of `O=S(=O)(O)Oc1ccc(/C=C/c2cc(O)cc3c2C(c2cc(O)cc(O)c2)C(c2ccc(O)cc2)O3)cc1` (stereo not shown) [MS2], the “percentage of each metabolite relative to the total amount of ε-viniferin metabolites formed by sulfation” value was “MS2: 24.8 ± 1.2%” in data set [1] and “MS2: 23.5 ± 3.1%” in data set [4]. In addition, the Vmax in data set [2] is 8.46 ± 0.89 pmol/min/mg protein; in data set [3] it was 30.46 ± 0.96 pmol/min/mg protein. For the same compound, in data set [2], the “relative abundance among the sulfoconjugates (UPLC-DAD profile)” value is “almost equal amounts”.
Consider `Oc1ccc(/C=C/c2cc(O)cc3c2[C@@H](c2cc(O)cc(O)c2)[C@H](c2ccc(O)cc2)O3)cc1` [ε-viniferin, ε-Viniferin], for which, in data set [1], the “Glucuronidation (%)” value was 29.1% and 29.1 ± 1.2%; the “Sulfatation (%)” value is 43.6% and 43.6 ± 1.8%. In addition, the oral bioavailability in data set [7] was 0.77%. In data set [4], the “Sulfatation (%)” value is 4.3% and 4.3 ± 0.3%; the “ε-viniferin conversion (%)” value was found to be 78.1 ± 0.9%.
On to `O=C(O)C1OC(Oc2ccc(/C=C/c3cc(O)cc4c3C(c3cc(O)cc(O)c3)C(c3ccc(O)cc3)O4)cc2)C(O)C(O)C1O` (stereo not shown) [MG2], for which the “percentage of each metabolite relative to the total amount of ε-viniferin metabolites formed by glucuronidation” value in data set [1] is reported as “MG2: 5.0 ± 1.2%”; in data set [4], “MG2: 1.1 ± 0.2%”. Moreover, the Vmax in data set [5] amounted to 12.49 ± 1.13 pmol/min/mg protein; in data set [6], 2.54 ± 0.16 pmol/min/mg protein.
The corresponding values for `O=C(O)C1OC(Oc2ccc(C3Oc4cc(O)cc(/C=C/c5ccc(O)cc5)c4C3c3cc(O)cc(O)c3)cc2)C(O)C(O)C1O` (stereo not shown) [MG3] are “MG3: 8.9 ± 0.5%”, “MG3: 0.7 ± 0.0%”, 3.06 ± 0.14 pmol/min/mg protein and 0.78 ± 0.06 pmol/min/mg protein.
`O=C(O)C1OC(Oc2cc(/C=C/c3ccc(O)cc3)c3c(c2)OC(c2ccc(O)cc2)C3c2cc(O)cc(O)c2)C(O)C(O)C1O` (stereo not shown) [MG1]: the “percentage of each metabolite relative to the total amount of ε-viniferin metabolites formed by glucuronidation” value was “MG1: 54.6 ± 2.4%” in data set [1] and “MG1: 91.1 ± 2.4%” in data set [4]. The Vmax is 548.90 ± 86.17 pmol/min/mg protein in data set [5] and 11.27 ± 1.30 pmol/min/mg protein in data set [6]. Also, the “relative abundance among the glucuronides (UPLC-DAD profile)” value was “major metabolite” in data set [5] (rat liver S9 2 mg/mL, ε-viniferin 50 µM, UDPGA, 40 min, 37 °C) and “major metabolites” in data set [6].
As to `Oc1ccc([C@H]2Oc3ccc(/C=C/c4cc(O)cc(O)c4)cc3[C@@H]2c2cc(O)cc(O)c2)cc1` [δ-viniferin], the oral bioavailability in data set [8] is 2.3%.
